Columns and labels:
[1] = biological target: T1, IL-8 type β receptor (IL-8Rβ) (Homo sapiens, UniProt P25025); test: [125I] IL-8 binding assay (WGA-SPA beads, IL-8Rβ membranes); conditions: 20 uM compound; [125I] IL-8, IL-8Rβ membranes
T1 construct: purchased BioSignal, Montreal, Canada; host or cells: Sf9 cells
T1 sequence (P25025 1-360): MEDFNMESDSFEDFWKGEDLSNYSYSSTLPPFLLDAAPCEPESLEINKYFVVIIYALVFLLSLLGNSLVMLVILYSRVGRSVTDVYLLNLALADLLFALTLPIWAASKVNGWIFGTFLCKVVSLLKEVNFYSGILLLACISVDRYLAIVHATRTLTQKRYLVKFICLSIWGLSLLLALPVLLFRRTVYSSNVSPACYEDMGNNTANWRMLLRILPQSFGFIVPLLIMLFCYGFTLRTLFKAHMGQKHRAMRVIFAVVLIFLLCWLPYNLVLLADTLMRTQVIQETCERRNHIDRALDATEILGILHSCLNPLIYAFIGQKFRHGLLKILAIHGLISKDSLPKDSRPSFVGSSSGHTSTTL
Method: IL-8 (human recombinant) was obtained from NEN Life Science Products, Inc., Boston, Mass., with specific activity of 2200 Ci/mmol. Recombinant human IL-8 was obtained from R&D Systems, Minneapolis, Minn. IL-8 type β receptor membranes were prepared from […] co-expressed with Gαi3β1γ2 proteins by BioSignal™, Montreal, Canada. Wheat Germ Agglutinin Scintillation Proximity Assay Beads were obtained from Amersham Pharmacia Biotech, Piscataway, N.J. All assays were performed in a 96-well, solvent resistant, white PicoPlate obtained from Packard Instruments. […] The assay was initiated by the addition of WGA-SPA beads in 25 mM Hepes (pH 7.4) containing 2 mM CaCl2 and 1 mM MgCl2. After 4–6 hours of gentle agitation at room temperature, the plate was counted on the Packard TopCount liquid scintillation counter.

[2] = tested on: polymorphonuclear neutrophils (PMNs); test: GRO-α driven chemotaxis assay with PMNs (ChemoTx plate); assay type: cell-based; conditions: 20 μM compound; 50 nM GRO-α, human PMNs
Method: Peripheral blood from healthy human volunteers was collected into heparin, diluted in an equal volume of PBS, layered over Ficoll-Paque Plus (Pharmacia Biotech, Uppsala, Sweden), and spun at 400×g for 30 min. The PMN rich fraction was removed and residual erythrocytes were lysed with hypotonic saline. The polymorphonuclear neutrophils (PMNs) were washed once with assay buffer (Dulbecco's PBS containing divalent cations and 0.1% endotoxin-free BSA), and resuspended at 1E7 cells/mL in the same buffer. PMNs were loaded with 5 μM calcein AM (Molecular Probes, Eugene, Oreg.), washed twice and resuspended in assay buffer.
Growth Regulatory Oncogene a (GRO-α) driven chemotaxis assays were performed according to the following protocol. […] Test compounds were dissolved in DMSO (100%) at 20 mM and diluted in assay buffer to the desired concentrations; final DMSO concentration was 0.2%. Neutrophil migration proceeded for 40 min at 37° C. in a humidified incubator with 5% CO2. After removing nonmigrated cells from the top of the plate, migrated cells were quantified by reading fluorescence on a Wallac Victor.
The ratio of the positive to negative controls represents the chemotactic index of the cells. The results from this assay are reported in Tables 3–5, under the column headings IL-8 and GRO-α, and under the sub-column headings ChTx (for chemotaxis).

[3] = biological target: T2, human chemokine CCR5 receptor (Homo sapiens, UniProt P51681); conditions: CCR5 reference data; cited from earlier work
T2 construct: host or cells: CHO-K1-p242-CCR5 cells
T2 sequence (P51681 whole entry): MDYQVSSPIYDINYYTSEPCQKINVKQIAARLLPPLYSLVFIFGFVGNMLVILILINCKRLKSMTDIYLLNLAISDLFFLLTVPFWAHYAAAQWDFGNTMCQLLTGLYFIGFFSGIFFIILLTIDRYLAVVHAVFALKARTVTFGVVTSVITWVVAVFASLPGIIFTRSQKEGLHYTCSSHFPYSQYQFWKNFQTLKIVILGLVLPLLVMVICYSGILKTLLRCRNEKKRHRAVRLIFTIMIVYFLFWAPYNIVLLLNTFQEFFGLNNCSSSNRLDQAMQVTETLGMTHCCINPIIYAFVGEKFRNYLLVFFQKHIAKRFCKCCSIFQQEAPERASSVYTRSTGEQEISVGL

Row | Molecule | IL-8 Binding @ 20 uM, % [1] | GRO-α ChTx @ 20 μM, % [2] | IC50 [3] [nM] | Ki [3] [nM] | nH [3]
1 | CCS(=O)(=O)c1ccc(C(=O)Nc2ccc(F)cc2)c[n+]1[O-] [drawing 49] | ** (“**” for % values greater than 40) | ** (“**” for % values greater than 40) |  |  | 
2 | CCCS(=O)(=O)c1ccc(C(=O)Nc2ccc(F)cc2)c[n+]1[O-] [drawing 51] | ** (“**” for % values greater than 40) | ** (“**” for % values greater than 40) |  |  | 
3 | O=C(Nc1ccc(F)cc1)c1ccc(S(=O)(=O)Cc2ccccc2)[n+]([O-])c1 [drawing 52] | ** (“**” for % values greater than 40) | ** (“**” for % values greater than 40) |  |  | 
4 | O=C(Nc1ccc(F)cc1)c1ccc(S(=O)(=O)C2CCCC2)[n+]([O-])c1 [drawing 53] | ** (“**” for % values greater than 40) | ** (“**” for % values greater than 40) |  |  | 
5 | O=C(Nc1ccc(F)c(F)c1)c1ccc(Cl)[n+]([O-])c1 [drawing 70] | * (“*” for % values of less than or equal to 40) | ** (“**” for % values greater than 40) |  |  | 
6 | MIP-1α: microphage inflammatory protein |  |  | 0.039 | 0.03 | 0.8
7 | RANTES: regulated on activation of normal T-cell expressed and secreted |  |  | 0.012 | 0.0093 | 0.9
8 | MIP-1β: microphage inflammatory protein; standard reference agent used in CCR5 assay (protein, UniProt P13236 24-92, looked up, ends and bridges not checked) C-C motif chemokine 4: APMGSDPPTACCFSYTARKLPRNFVVDYYETSSLCSQPAVVFQTKRSKQVCADPSESWVQEYVYDLELN |  |  | 0.074 | 0.057 | 0.9
